Source: patent US12655144B2, “Method for producing heterocyclic compound” (TAKEDA PHARMACEUTICAL COMPANY LIMITED, priority 2020, dated 2026)

How the values were obtained:
[1] = tested on: OCI-Ly3 subcutaneously transplanted tumor; experiment: Antitumor effect on OCI-Ly3 cell-bearing cancer model; format: in vivo, NOG female mice; settings: 10 mg/kg orally twice daily for 3 weeks; average tumor volume increase ratio vs control; NOG mice bearing OCI-Ly3
Description: Antitumor Effect on OCI-Ly3 Cell-Bearing Cancer Model Human diffuse large-cell B-cell lymphoma cells OCI-Ly3 (DSMZ, German Collection of Microorganisms and Cell Cultures) were suspended in a Matrigel (BD Biosciences):HBSS (Thermo Fisher Scientific)=1:1 solution, and 1×10^7 cells were transplanted subcutaneously into the abdomen of NOG female mice (CLEA Japan, Inc.). The tumor diameter of the engrafted tumor was measured, and the tumor volume was calculated by the following formula. Tumor volume=major axis×minor axis×minor axis×(1/2) Individuals with the engrafted tumor having a tumor volume of about 120 mm^3 were selected, and 6 animals per group were used in the experiment. A suspension of the test compound in 0.5% methylcellulose solution (Fujifilm Wako Pure Chemical Corporation) was orally administered at a dose of 10 mg/kg (10 mL/kg) twice daily for 3 weeks. The tumor volume was measured on the day before the start of administration and every 3 to 4 days over time, and the tumor diameter was finally measured the day after the end of administration for 21 days to calculate the tumor volume. The tumor growth of the test compound-administered group compared with the control-administered group was calculated by the following formula as an average tumor volume increase ratio T/C. […]

OCI-Ly3 cells = experiment: Measurement of growth inhibitory activity using OCI-Ly3 cells; format: cell-based; settings: Homo sapiens, 144 h, 3 μM compound, 6 days, Cell Titer-Glo, read-out: Cell growth inhibition rate (%) at 3 μM compound
Description: Measurement of Growth Inhibitory Activity Using OCI-Ly3 Cells
OCI-Ly3 cells were seeded in a cell culture medium IMDM (Fujifilm Wako Pure Chemical Corporation) containing 20% FCS (fetal calf serum, Thermo Fisher Scientific) and monothioglycerol (Fujifilm Wako Pure Chemical Corporation) so as to be at 1.25×10^3 cells/well on a 96-well plate. […] Subsequently, the luminescence value was measured with Envision (PerkinElmer) on the day of seeding. […] Subsequently, the luminescence value was measured in the same manner. The inhibition rate (%) of the test compound on OCI-Ly3 cell growth was calculated by the following formula. Cell growth inhibition rate (%)=(1−(Luminescent value on day 6 of test compound treatment−Luminescent value before test compound treatment)/(Luminescent value on day 6 without compound addition−Luminescent value before compound treatment))×100

| Structure (SMILES) | T/C (%) [1] [%] | inhibition at 3 µM (OCI-Ly3 cells) [%] |
| --- | --- | --- |
| CO[C@@H](C)c1c(NC(=O)Nc2cnc(-n3nccn3)c(C(F)(F)F)c2)cnc2ccc(Cl)nc12 [Compound X1, (S)—N-(6-Chloro-4-(1-methoxyethyl)-1,5-naphthyridine-3-yl)-N′-(6-(2H-1,2,3-triazole-2-yl)-5-(trifluoromethyl)pyridine-3-yl)urea] | 2.0 | 97 |
| CO[C@@H](C)c1c(NC(=O)Nc2cnc(-n3nccn3)c(C(F)(F)F)c2)cnc2ccc(C)nc12 [Compound X2, (S)—N-(4-(1-methoxyethyl)-6-methyl-1,5-naphthyridine-3-yl)-N′-(6-(2H-1,2,3-triazole-2-yl)-5-(trifluoromethyl)pyridine-3-yl)urea] | 38.7 | 99 |
